US20230338316A1, “ABBAPOLINS AS INHIBITORS AND DEGRADERS OF POLO-LIKE KINASES” (UNIVERSITY OF SOUTH CAROLINA, priority 2022, published 2023)
One block for each compound: values may come before it.

Assays:
[1] = biological target: T1, PLK1 PBD (367-603) (Homo sapiens, UniProt P53350); experiment: Fluorescence polarization assay, PLK1 PBD; type: binding; details: for IC50: fluorescence polarization, read-out: PLK1 PBD IC50
T1 construct: PLK1 PBD (367-603) and PLK3 PBD (335-646) proteins were obtained from BPS Biosciences Inc; purchased BPS Biosciences Inc. (San Diego, CA)
T1 sequence (P53350 367-603): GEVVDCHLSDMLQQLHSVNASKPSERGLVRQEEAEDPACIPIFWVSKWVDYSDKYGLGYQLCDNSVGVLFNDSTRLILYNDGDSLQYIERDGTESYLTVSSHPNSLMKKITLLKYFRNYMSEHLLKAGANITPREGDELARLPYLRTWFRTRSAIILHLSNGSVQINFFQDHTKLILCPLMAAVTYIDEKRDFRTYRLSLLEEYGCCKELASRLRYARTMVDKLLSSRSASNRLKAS
Protocol: (§1) Materials were dissolved in DMSO (10 mM) and diluted from 10 nM to 600 μM (maximum of 6% DMSO tolerance in the assay). PLK1 PBD (367-603) and PLK3 PBD (335-646) proteins were obtained from BPS Biosciences Inc. (San Diego, CA); 17 ng PLK1 and 156 ng PLK3 were used per reaction. The fluorescein-tracer phospho-peptides (MAGPMQS[pT]PLNGAKK (SEQ ID NO: 1) for PLK1, and GPLATS[pT]PKNG (SEQ ID NO: 2) for PLK3) were used at a final concentration of 10 nM. Incubation was carried out at room temperature for 45 minutes. Fluorescence was measured using a DTX 880 plate reader and Multimode Analysis software (Beckman Coulter, Brea, CA). The polarization values in millipolarization (mP) units were measured at an excitation wavelength of 488 nm and an emission wavelength of 535 nm. Each data point was performed in triplicate for every experiment, and experiments were performed at least three times. An IC50 value for each compound was calculated from linear regression analysis of the plots.

[2] = biological target: T2, PLK3 PBD (335-646) (Homo sapiens, UniProt Q9H4B4); experiment: Fluorescence polarization assay, PLK3 PBD; type: binding
T2 construct: PLK1 PBD (367-603) and PLK3 PBD (335-646) proteins were obtained from BPS Biosciences Inc; purchased BPS Biosciences Inc. (San Diego, CA)
T2 sequence (Q9H4B4 335-646): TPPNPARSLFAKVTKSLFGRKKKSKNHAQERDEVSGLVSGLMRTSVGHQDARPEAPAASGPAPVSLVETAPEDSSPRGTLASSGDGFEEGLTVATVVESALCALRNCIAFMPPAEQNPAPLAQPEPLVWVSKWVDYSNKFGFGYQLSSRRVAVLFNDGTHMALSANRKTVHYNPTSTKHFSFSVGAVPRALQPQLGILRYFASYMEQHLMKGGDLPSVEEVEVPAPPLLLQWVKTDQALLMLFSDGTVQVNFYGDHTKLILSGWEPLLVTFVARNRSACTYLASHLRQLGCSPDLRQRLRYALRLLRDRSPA
Protocol: as §1

[3] = test system: PC3 prostate cancer cells; experiment: MTT cell viability assay, PC3; type: cell-based; details: for IC50: MTT
Protocol: PC3 prostate cancer cells were maintained in DMEM (Invitrogen™, Carlsebad, CA) supplemented with 10% FBS or Corning® Nu-serum™(BD™ Biosciences, Franklin Lakes, NJ) and 1% penicillin/streptomycin (Invitrogen™) in a humidified incubator and 5% CO2 at 37° C.
Exponentially growing cells were plated in 96-well dishes. Dose response curves were used to treat cells for 72 hours with inhibitors. Following the three-day treatment, cell viability was measured using the MTT (3-(4,5-dimethylthiazol-2-yl)-2,5-diphenyltetrazolium bromide) colorimetric assay. Cells were incubated for 3 hours with MTT allowing viable cells to metabolize the tetrazolium dye to a purple colored solution. Absorbance measurements (595 nm) were quantified using a DTX 880 plate reader and IC50 values were generated for FLIPs.

[4] = test system: HOP-92; experiment: Single dose cell viability assay, HOP-92; type: cell-based; details: HOP-92 (NSCLC)
Protocol: (§2) Lead abbapolin compounds were tested in multiple cancer cell lines, including non-small cell lung cancer (NSCLC) cells, melanoma cells, colon cancer cells, central nervous system (CNS) cancer cells, prostate cancer cells, renal cancer cells, and breast cancer cells. Each of these cancer cells lines were sensitive to the lead abbapolin compounds in a cell viability assay, including 6184 (Table 3), 6277 (Table 4), 6279 (Table 5), 6355 (Table 6), 6359 (Table 7), 6369 (Table 8), and 6421 (Table 9).

[5] = biological target: T3, PLK1 (Homo sapiens, UniProt P53350); experiment: PLK1 degradation in PC3 cells; type: cell-based; parameters: endogenous in cells; host or cells: PC3 prostate cancer cells; details: PC3 cell line, 24 hours
T3 sequence (P53350 whole entry): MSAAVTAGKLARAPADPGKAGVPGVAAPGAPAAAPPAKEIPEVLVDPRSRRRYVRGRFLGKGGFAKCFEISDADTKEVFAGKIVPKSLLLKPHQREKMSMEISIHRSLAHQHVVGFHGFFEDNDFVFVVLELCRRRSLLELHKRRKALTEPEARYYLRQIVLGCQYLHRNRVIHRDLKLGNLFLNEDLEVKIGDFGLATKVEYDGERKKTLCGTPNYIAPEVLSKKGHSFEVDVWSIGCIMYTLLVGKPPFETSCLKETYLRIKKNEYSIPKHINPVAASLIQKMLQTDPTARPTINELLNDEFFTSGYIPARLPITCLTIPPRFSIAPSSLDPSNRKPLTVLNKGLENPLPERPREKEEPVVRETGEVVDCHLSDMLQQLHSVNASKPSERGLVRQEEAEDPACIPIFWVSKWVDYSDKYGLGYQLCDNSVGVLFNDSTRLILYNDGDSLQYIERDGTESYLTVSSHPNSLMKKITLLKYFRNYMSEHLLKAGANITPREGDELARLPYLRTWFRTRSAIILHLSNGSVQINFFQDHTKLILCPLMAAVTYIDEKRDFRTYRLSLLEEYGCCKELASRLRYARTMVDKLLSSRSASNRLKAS
Protocol: (§3) For example, PC3 cells were treated with varying dosages of abbapolin 6369, and percent of PLK1 degradation was measured at 24 hours (FIGS. 8A-8B). HeLa cells were treated with 25 μM abbapolin 6369, and time points shown in the assay were 24 hours, 48 hours, and 72 hours (FIGS. 9A-9B). PC3 cells were treated with varying dosages of abbapolin 6329, and percent of PLK1 degradation was measured at 24 hours (FIGS. […]). HeLa cells were treated with varying dosages of abbapolin 6329, and time points shown in the assay were 24 hours, 48 hours, and 72 hours (FIGS. 11A-11B).

[6] = biological target: T3, PLK1; experiment: PLK1 degradation in HeLa cells; type: cell-based; parameters: endogenous in cells; details: HeLa cell line, 24, 48 and 72 hours
Protocol: as §3

[7] = test system: NCI-H522; experiment: Single dose cell viability assay, NCI-H522; type: cell-based; details: NCI-H522 (NSCLC), single dose 25 μM
Protocol: as §2

[8] = test system: SK-MEL-2; experiment: Single dose cell viability assay, SK-MEL-2; type: cell-based; details: SK-MEL-2 (Melanoma), single dose 25 μM
Protocol: as §2

[9] = test system: MDA-MB-468; experiment: Single dose cell viability assay, MDA-MB-468; type: cell-based; details: MDA-MB-468 (Breast), single dose 25 μM
Protocol: as §2

[10] = test system: CCRF-CEM; experiment: Single dose cell viability assay, CCRF-CEM; type: cell-based; details: CCRF-CEM (Leukemia), single dose 25 μM
Protocol: as §2

[11] = test system: U251; experiment: Single dose cell viability assay, U251; type: cell-based; details: U251 (CNS), single dose 25 μM
Protocol: as §2

[12] = test system: RPMI-8226; experiment: Single dose cell viability assay, RPMI-8226; type: cell-based; details: RPMI-8226 (Leukemia), single dose 25 μM
Protocol: as §2

[13] = test system: UACC-62; experiment: Single dose cell viability assay, UACC-62; type: cell-based; details: UACC-62 (Melanoma), single dose 25 μM
Protocol: as §2

[14] = test system: SF-295; experiment: Single dose cell viability assay, SF-295; type: cell-based; details: SF-295 (CNS), single dose 25 μM
Protocol: as §2

[15] = test system: SK-MEL-5; experiment: Single dose cell viability assay, SK-MEL-5; type: cell-based; details: SK-MEL-5 (Melanoma), single dose 25 μM
Protocol: as §2

[16] = test system: HCT-15; experiment: Single dose cell viability assay, HCT-15; type: cell-based; details: HCT-15 (Colon), single dose 25 μM
Protocol: as §2

[17] = biological target: T3, PLK1; experiment: Cellular thermal shift assay (CETSA); type: cell-based; parameters: endogenous in cells; host or cells: PC3 prostate cancer cells; details: intracellular PLK1
Protocol: Cellular thermal shift assay (CETSA) was performed with PC3 cells cultured in RPMI medium supplemented with 10% FBS. For an initial determination of the melting profile of PLK1 AND PLK3, cells dispensed into 96-well PCR plates in the above medium (6000 cells/well in 50 μL) were subjected to temperature gradient (38-60° C.) for 10 min. […] Centrifugation was performed at 14000 rpm to sediment the denatured protein content. Supernatant was collected and subjected to SDS-PAGE, and immunodetection was performed using anti-PLK1 and anti-PLK3 antibodies. PLK1 and PLK3 bands were quantified on a LI-COR C-Digit Blot Scanner, and Tagg and Tagg values were calculated for both proteins. In subsequent experiments, cells were treated at increasing doses (3.0, 1.0, 0.3, 0.1, 0.03 μM) of inhibitors together with DMSO control, for 2 h. Cells were then subjected to heat shock at Tagg for 10 min, and unstable protein was removed by centrifugation step. Following immuno-blotting, bands of stable PLK1 and PLK3 were quantified, normalized to loading control and plotted using GraphPad Prism software. EC50 values for inhibitors were calculated. […] The EC50 of the peptides were determined from the curve fit of the dose response.

- IC50 [1]: 23.5 ± 4.9 µM
- IC50 [2]: 37.6 ± 5.7 µM
- IC50 ([3]; 72 h): 14.2 ± 2 µM
SMILES: CCCCCCCCc1ccc(C(=O)Nc2ccc(C(F)(F)F)cc2C(=O)O)cc1 [compound 6165]

- IC50 [1]: > 600 µM
- IC50 ([3]; 72 h): 28 µM
SMILES: CCCCCCCCN(C)c1ccc(C(=O)Nc2ccc(C)cc2C(=O)O)cc1 [compound 6172]

- IC50 [1]: 95.3 µM
- IC50 ([3]; 72 h): 9.2 µM
SMILES: CCCCCCCCc1ccc(C(=O)Nc2ccccc2CP(=O)(O)O)cc1 [compound 6184]
- Cells Remaining (%) ([4]; single dose 10 μM): 43.86%

- IC50 [1]: 51.5 µM
- IC50 ([3]; 72 h): 20.4 ± 4.4 µM
SMILES: CCCCCCCCc1ccc(C(=O)Nc2cccc(CP(=O)(O)O)c2)cc1 [compound 6195]

- IC50 [1]: > 100 µM
- IC50 [2]: > 200 µM
- IC50 ([3]; 72 h): 25.9 µM
- IC50 ([3]; 72 hours): 18.3 µM
SMILES: CCCCCCCCc1ccc(C(=O)Nc2ccc(C)cc2C(=O)O)cc1OC [compound 6280]

- IC50 [1]: 19.5 µM
SMILES: CCCCCCCCc1cccc(C(=O)Nc2ccc(C)cc2C(=O)O)c1 [compound 6281]

- IC50 [1]: 21 µM
SMILES: CCCCCCCCc1ccc(C(=O)Nc2ccc(C)cc2C(=O)O)cc1C [compound 6282]

- IC50 [1]: 53 µM
- IC50 ([3]; 72 h): 26.6 µM
- IC50 ([3]; 72 hours): 25.1 µM
SMILES: CCCCCCCCc1ccc(C(=O)Nc2ccccc2P(=O)(O)O)cc1 [compound 6286]

- IC50 [1]: 80.8 µM
SMILES: CCCCCCCCc1ccc(C(=O)Nc2cccc(P(=O)(O)O)c2)cc1 [compound 6287]
- PC3 % inhi. ([3]; at 100 μM): 50% inhi. at

Further lines, the compound ahead of its results:

SMILES: Cc1ccc(NC(=O)c2ccc(N)cc2)c(C(=O)O)c1 [compound 6153]
- IC50 [1]: > 600 µM
- IC50 [2]: > 600 µM
- IC50 ([3]; 72 h): > 120 µM

SMILES: Cc1ccc(C(=O)O)c(NC(=O)c2ccc(N)cc2)c1 [compound 6154]
- IC50 [1]: > 600 µM
- IC50 ([3]; 72 h): > 120 µM

SMILES: CCCCCCCCN(C)c1ccc(C(=O)Nc2cc(C)ccc2C(=O)O)cc1 [compound 6171]
- IC50 [1]: > 600 µM
- IC50 ([3]; 72 h): 27.3 µM

SMILES: CCCCCCNC(=O)c1ccc(C(=O)Nc2ccc(C)cc2C(=O)O)cc1 [compound 6189]
- PLK1 PBD % inhi. ([1]; at 400 μM): 37% inhi. at

SMILES: Cc1ccc(NC(=O)c2ccc(OCCCCCCCCCCCNC(=O)CCCC(=O)Nc3cccc4c3C(=O)N(C3CCC(=O)NC3=O)C4=O)cc2)c(C(=O)O)c1 (stereo not shown) [compound 6329]
- PLK1 degradation [5]: degradation of PLK1
- PLK1 degradation [6]: degradation of PLK1

SMILES: CCCCCCCOc1cccc(S(=O)(=O)Nc2ccc(C)cc2C(=O)O)c1 [compound 6355]
- Cells Remaining (%) [7]: 65.09%
- Cells Remaining (%) [8]: 30.01%
- Cells Remaining (%) [9]: 55.12%
- Cells Remaining (%) [10]: 67.09%
- Cells Remaining (%) [11]: 64.99%
- Cells Remaining (%) [12]: 51.41%
- Cells Remaining (%) [13]: 61.59%
- Cells Remaining (%) [14]: 59.2%
- Cells Remaining (%) [15]: 59.55%
- Cells Remaining (%) ([4]; single dose 25 μM): 57.02%
- Cells Remaining (%) [16]: 49.94%

SMILES: CC[C@@H]1C(=O)N(C)c2cnc(Nc3ccc(C(=O)N[C@H]4CC[C@H](N5CCN(CC6CC6)CC5)CC4)cc3OC)nc2N1C(C)C [volasertib, reference compound]
- PLK1 thermal stability by CETSA [17]: decreased the stability of PLK1
